# Laboratory results as given in article PMC5227004, “Native ESI Mass Spectrometry Can Help to Avoid Wrong Interpretations from Isothermal Titration Calorimetry in Difficult Situations” (Journal of the American Society for Mass Spectrometry, 2016).
# What was measured:
# [1] = target: T1, DNA-polymerase processivity factor (β-ring) from Escherichia coli (Escherichia coli, UniProt P0A988); experiment: Isothermal titration calorimetry (ITC) of peptide binding to the E. coli β-ring; conditions: βE.coli
# T1 sequence (P0A988 whole entry, looked up): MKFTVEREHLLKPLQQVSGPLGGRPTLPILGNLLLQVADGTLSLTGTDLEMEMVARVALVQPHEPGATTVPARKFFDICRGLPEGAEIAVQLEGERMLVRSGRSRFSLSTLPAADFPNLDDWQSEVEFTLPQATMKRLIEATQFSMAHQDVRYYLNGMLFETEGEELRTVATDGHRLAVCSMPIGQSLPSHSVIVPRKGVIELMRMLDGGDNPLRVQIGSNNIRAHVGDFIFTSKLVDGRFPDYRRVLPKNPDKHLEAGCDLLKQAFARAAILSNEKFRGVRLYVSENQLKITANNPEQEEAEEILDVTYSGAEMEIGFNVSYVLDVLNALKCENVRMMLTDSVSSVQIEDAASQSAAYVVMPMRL
# Method: We used an iTC200 from Microcal (now Microcal-Malvern, UK) operated in the high-gain mode. […] In short, the β -rings were initially in the cell at concentrations ranging from 20 to 60 μM and the peptides were in the syringe at concentrations ranging from 200 to 600 μM. The buffer was Hepes 10 mM, pH 7.4, supplemented with NaCl 150 mM and EDTA 3 mM. Experiments were performed at different temperatures from 15 to 34 °C.
# The processing of the ITC data was first performed with the same model as the one used for ESI-MS (one specific binding site per monomer). […] The advantage of this still unusual method is of fitting several titration curves with a minimum set of free parameters. All K d values obtained by ITC were corrected for 22.5 °C, which was the incubation temperature used in ESI-MS experiments. This was performed by using the Van’t Hoff equation: ∂ ln K d/∂T = − ΔH/(RT ^2), where ΔH is the variation of enthalpy during complex formation and R = 8.314 J mol^−1 K^−1 the gas constant. Note that such a correction is quite justified for K d values obtained by ITC since the primary output from ITC is precisely the enthalpic term ΔH governing the evolution of K d with the temperature.
# This competition model requires determining a fixed fraction f 1 of the protein monomers binding their ligand according to a dissociation constant K d1 and an enthalpy variation ΔH 1, and a fixed fraction f 2 = 1 − f 1 binding their ligand according to a dissociation constant K d2 and an enthalpy variation ΔH 2 (we consider K d2 < K d1).
# [2] = target: T1, DNA-polymerase processivity factor (β-ring) from Escherichia coli; experiment: Native ESI-MS titration of peptide binding to the E. coli β-ring; conditions: βE.coli; processing taking into account separately the species R3
# [3] = model with two competing modes of binding on the same site
smiles,measurement,setting,value
CC(=O)N[C@@H](CCC(N)=O)C(=O)N[C@@H](CC(C)C)C(=O)N[C@@H](CC(=O)O)C(=O)N[C@@H](CC(C)C)C(=O)N[C@@H](Cc1ccccc1)C(=O)O [P6],"ΔH1 (ITC), weaker binding mode",[1]; [3],≈ 1 kcal mol^−1
same,"ΔH2 (ITC), stronger binding mode",[1]; [3],≈ –12 kcal mol^−1
same,"ΔH (ITC), one binding mode","[1]; simple model with one binding mode, at 25 °C",≈ –11.8 ± 0.2 kcal mol^−1
same,"P, probability of GPD (ESI-MS, Equations 4)",[2],0.0528
